Tests used:
xanthine oxidase = xanthine oxidase (Homo sapiens, UniProt P47989); settings: as described in WO92/09279; cited from earlier work
[1] = Intrinsic dissolution rate (USP 24 <1087>); assay type: physicochemical; settings: pellets, second fluid of the disintegration test of Japanese Pharmacopoeia, 50 rpm
Method: The dissolution rate was measured according to USP 24, <1087>Intrinsic Dissolution. Specifically, the measurement was carried out as follows:
50 mg each of crystals powdered lightly in an agate mortar was set between plates, and a pressure of 754 kgf/cm^2 was applied thereto for one minute to produce pellets. As the testing solution, 900 mL of the second fluid of the disintegration test of Japanese Pharmacopoeia was used and the test was carried out at 50 rpm using the dissolution apparatus produced by Vankel. Subsequently, the testing liquid was filtered through a filter and the resultant, used as the sample solution, was tested with respect to a standard solution by a spectrophotometry (wavelength of 317 nm). The results are shown in Table 2, in which the order of the dissolution rate of the six crystals is as follows: E>A>B>D>G>C.

[2] = Physical stability of drug substance crystals at 40° C./75% RH (HPLC degradant, XRD/TG transformation); assay type: physicochemical; settings: for Transformation of crystal form on storage: 40° C./75% RH, storage for three months
Method: Each of the drug substances (crystals A, B, C, D, E and G) of 2-(3-cyano-4-isobutyloxyphenyl)-4-methyl-5-thiazolecarboxylic acid was tested in bottles with and without closure under the conditions of 40° C./75% RH. Any degradant was detected by a HPLC. Their transformation was detected by an X-ray powder diffraction pattern and by a thermal mass measurement method, and the 50% transform time was determined. There was no degradant for all of the six crystal forms.
For the above HPLC, Model 2690 produced by Waters was adopted, using an ODS column with a measured wave length of 217 nm at a predetermined temperature around 40° C.
For the above X-ray powder diffraction, Model XRD-6000 of Shimadzu Corp. was used.
For the above heat mass measurement, Model TGA7, Pyris1 produced by Perkin Elmer was used at a temperature rising speed of 40° C./min.

[3] = as described in WO99/65885; cited from earlier work
[4] = Pulverized particle size by image analysis; assay type: physicochemical
Method: Plain tablets were prepared by the method same as that of Example 1 except that particles (Particles 1˜4) shown in Table 7, with crystal A and with four different kinds of average particle sizes, were used as 2-(3-cyano-4-isobutyloxyphenyl)-4-methyl-5-thiazolecarboxylic acid. The obtained plain tablets were coated with coating liquid comprising purified water, polyethylene glycol and hydroxypropylmethyl cellulose by a coating machine (High Coater HCT-30, Freund Ind.).

[5] = 40° C./75% RH with closure, analysis XRD or TG
[6] = 40° C./75% RH without closure, analysis XRD or TG

xanthine oxidase, sequence (P47989 whole entry, species assumed): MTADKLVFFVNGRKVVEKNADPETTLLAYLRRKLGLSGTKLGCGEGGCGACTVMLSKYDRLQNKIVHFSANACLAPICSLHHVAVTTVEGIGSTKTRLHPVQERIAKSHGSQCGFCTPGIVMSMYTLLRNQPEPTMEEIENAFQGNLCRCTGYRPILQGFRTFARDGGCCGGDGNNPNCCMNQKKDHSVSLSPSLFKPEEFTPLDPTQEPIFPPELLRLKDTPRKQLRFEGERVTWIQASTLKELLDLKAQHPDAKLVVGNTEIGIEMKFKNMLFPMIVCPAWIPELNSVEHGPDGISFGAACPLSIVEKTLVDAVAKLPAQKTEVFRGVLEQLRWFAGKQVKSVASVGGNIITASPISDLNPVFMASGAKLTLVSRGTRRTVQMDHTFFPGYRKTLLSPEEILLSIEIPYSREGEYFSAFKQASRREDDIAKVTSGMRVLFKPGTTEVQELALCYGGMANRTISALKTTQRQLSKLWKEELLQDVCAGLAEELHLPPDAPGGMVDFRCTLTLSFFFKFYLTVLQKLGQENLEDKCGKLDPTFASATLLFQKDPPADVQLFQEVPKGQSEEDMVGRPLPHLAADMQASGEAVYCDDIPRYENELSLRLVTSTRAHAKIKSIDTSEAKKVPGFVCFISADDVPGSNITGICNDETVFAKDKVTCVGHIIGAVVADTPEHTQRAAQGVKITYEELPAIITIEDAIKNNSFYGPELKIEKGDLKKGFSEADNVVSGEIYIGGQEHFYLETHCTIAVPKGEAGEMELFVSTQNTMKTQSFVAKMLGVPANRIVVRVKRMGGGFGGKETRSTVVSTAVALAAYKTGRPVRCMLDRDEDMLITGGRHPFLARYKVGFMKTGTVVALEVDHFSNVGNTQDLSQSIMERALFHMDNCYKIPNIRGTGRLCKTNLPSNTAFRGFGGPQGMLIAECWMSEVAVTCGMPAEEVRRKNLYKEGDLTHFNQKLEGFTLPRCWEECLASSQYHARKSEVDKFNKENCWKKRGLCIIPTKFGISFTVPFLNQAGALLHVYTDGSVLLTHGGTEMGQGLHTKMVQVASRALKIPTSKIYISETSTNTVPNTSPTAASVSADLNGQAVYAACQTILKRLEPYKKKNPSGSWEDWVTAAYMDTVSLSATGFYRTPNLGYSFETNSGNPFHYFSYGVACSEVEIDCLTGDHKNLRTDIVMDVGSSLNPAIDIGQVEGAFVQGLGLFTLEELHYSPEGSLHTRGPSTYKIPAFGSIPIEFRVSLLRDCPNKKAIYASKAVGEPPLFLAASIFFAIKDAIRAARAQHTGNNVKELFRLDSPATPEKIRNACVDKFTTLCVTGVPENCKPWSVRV

| SMILES | Activity for inhibiting xanthine oxidase (xanthine oxidase) | Intrinsic rate [1] | 50% Transform time [2, 5] | 50% Transform time [2, 6] | Transformation of crystal form on storage [2] | Retention of a crystal form in long term storage [3] | 50% Transform time ([2]; 40° C./75% RH without closure, analysis XRD) | Pulverized particle size, 95% cumulative diameter [4] | Pulverized particle size, average particle diameter [4] |
| --- | --- | --- | --- | --- | --- | --- | --- | --- | --- |
| Cc1nc(-c2ccc(OCC(C)C)c(C#N)c2)sc1C(=O)O [2-(3-cyano-4-isobutyloxyphenyl)-4-methyl-5-thiazolecarboxylic acid] | strong activity | – | – | – | – | – | – | – | – |
| Cc1nc(-c2ccc(OCC(C)C)c(C#N)c2)sc1C(=O)O [Crystal A, 2-(3-cyano-4-isobutyloxyphenyl)-4-methyl-5-thiazolecarboxylic acid] | – | 0.1434 mg/cm^2/min | (Not changed) | (Not changed) | stable | useful in view of retention of a crystal form in long term storage | – | – | – |
| Cc1nc(-c2ccc(OCC(C)C)c(C#N)c2)sc1C(=O)O [Crystal B, 2-(3-cyano-4-isobutyloxyphenyl)-4-methyl-5-thiazolecarboxylic acid] | – | 0.1242 mg/cm^2/min | 5 days | 0.583 days | transformation of crystals B, D and E was detected | – | – | – | – |
| Cc1nc(-c2ccc(OCC(C)C)c(C#N)c2)sc1C(=O)O [Crystal C, 2-(3-cyano-4-isobutyloxyphenyl)-4-methyl-5-thiazolecarboxylic acid] | – | 0.0694 mg/cm^2/min | (Not changed) | (Not changed) | stable | useful in view of retention of a crystal form in long term storage | – | – | – |
| Cc1nc(-c2ccc(OCC(C)C)c(C#N)c2)sc1C(=O)O [Crystal D, 2-(3-cyano-4-isobutyloxyphenyl)-4-methyl-5-thiazolecarboxylic acid] | – | 0.1092 mg/cm^2/min | 17 days | 0.0104 days | transformation of crystals B, D and E was detected | – | – | – | – |
| Cc1nc(-c2ccc(OCC(C)C)c(C#N)c2)sc1C(=O)O [Crystal E, 2-(3-cyano-4-isobutyloxyphenyl)-4-methyl-5-thiazolecarboxylic acid] | – | 0.1874 mg/cm^2/min | 55 days | – | transformation of crystals B, D and E was detected | – | 19 days | – | – |
| Cc1nc(-c2ccc(OCC(C)C)c(C#N)c2)sc1C(=O)O [Crystal G, 2-(3-cyano-4-isobutyloxyphenyl)-4-methyl-5-thiazolecarboxylic acid] | – | 0.0967 mg/cm^2/min | (Not changed) | (Not changed) | stable | useful in view of retention of a crystal form in long term storage | – | – | – |
| Cc1nc(-c2ccc(OCC(C)C)c(C#N)c2)sc1C(=O)O [Particle 1, 2-(3-cyano-4-isobutyloxyphenyl)-4-methyl-5-thiazolecarboxylic acid] | – | – | – | – | – | – | – | 5.6 μm | 3.5 μm |
| Cc1nc(-c2ccc(OCC(C)C)c(C#N)c2)sc1C(=O)O [Particle 2, 2-(3-cyano-4-isobutyloxyphenyl)-4-methyl-5-thiazolecarboxylic acid] | – | – | – | – | – | – | – | 29.5 μm | 12.9 μm |
| Cc1nc(-c2ccc(OCC(C)C)c(C#N)c2)sc1C(=O)O [Particle 3, 2-(3-cyano-4-isobutyloxyphenyl)-4-methyl-5-thiazolecarboxylic acid] | – | – | – | – | – | – | – | 74.7 μm | 26.2 μm |
| Cc1nc(-c2ccc(OCC(C)C)c(C#N)c2)sc1C(=O)O [Particle 4, 2-(3-cyano-4-isobutyloxyphenyl)-4-methyl-5-thiazolecarboxylic acid] | – | – | – | – | – | – | – | 140.8 μm | 48.6 μm |
